Data on 14 compounds can be found in patent US5030631A, “Tricylclic arylsulfonamides” (Schering Corporation, priority 1989, dated 1991).

Assay [1] relates to conscious spontaneously hypertensive rats (SHR). Nature of the assay: Antihypertensive Activity in Rats (conscious spontaneously hypertensive rats, SHR). The assay is classed as in vivo, rat. Particulars: for Change in blood pressure (mean change in mean blood pressure): male SHR, placebo -5. From the text: The ability of the compounds of the present invention to lower blood pressure can be assessed in conscious spontaneously hypertensive rats (SHR). SHR (males) are purchased from Taconic Farms, Germantown, N.Y. and are approximately 16-17 weeks old when used to test the pharmacological effects. Rats, under ether anesthesia, receive a polyethylene tubing (PE50 fused to PE10) inserted via the caudal artery into the abdominal aorta to just below the renal arteries. This catheter is connected to a Spectromed pressure transducer and the direct arterial blood pressure is continuously recorded on an oscillographic recorder. Heart rate is determined via manual count of the pressure waves at a fast paper trace. […] If drugs are administered orally, compounds are suspended in 0.4% aqueous methylcellulose and delivered via oral gavage with an oral feeding needle. Rats are fasted overnight prior to intravenous or oral tests. All incisions are closed and the rats are placed into plexiglass restrainers where they quickly regain consciousness. At least 90 minutes are allowed for the rats to fully regain consciousness and achieve stable blood pressures and heart rates.
Intravenously administered drugs are usually given as a rapid bolus. […] In some cases drugs are given by constant intravenous infusion. The 0.4% aqueous methylcellulose is used as a placebo treatment for compounds given orally. Values are presented as the mean changes in mean blood pressure (MBP) in millimeters of mercury (mm Hg). Drug induced changes are compared with the changes in an appropriate placebo group. The compound is administered intravenously at a dosage of 1.0 to 5.0 milligrams per kilogram (mpk) body weight. The following results are representative for 1-((7-bromo-9H-fluoren-2-yl)sulfonyl)hexahydro-1H-1,4-diazepine from examples 4 and 27 (Compound A): […]

Assay [2] addresses T1, myosin light chain kinase (MLCK) (Gallus gallus, UniProt P11799).
T1 construct: Calmodulin-independent myosin light chain kinase(CIM) of greater than 95 percent homogeneity is prepared by trypsin digestion of calmodulin-dependent MLCK; from tissue; host or cells: chicken gizzard (purified from tissue, then digested with TPCK-treated trypsin)
The assay is described as follows: Calcium-Calmodulin Independent Myosin Light Chain Kinase (MLCK) Assay. The assay is classed as biochemical, chicken. The conditions noted are these: for IC50: calmodulin-independent MLCK (trypsin digested, chicken gizzard), peptide KKRPQRATSNVFS-NH2 50 μM, 100 uM ATP, pH 7.2; for inhibition at 100 µM: 100 μM compound, calmodulin-independent MLCK, printed in the IC50 (μM) column, read-out: percent inhibition at a dosage of 100 μM. How it is done: A. Enzyme Preparation. Calmodulin-independent myosin light chain kinase(CIM) of greater than 95 percent homogeneity is prepared by trypsin digestion of calmodulin-dependent MLCK which is prepared from chicken gizzard by the method of Ngai, P. J., Carruthers, C. A. and Walsh, M. P. (1984), Biochem. J. 218, pages 863-870, through the step employing diethylaminoethyl(DEAE)-Sephacel®, trademark of Pharmacia Fine Chemicals, Inc., New Market, N.J. 08854. The kinase solution containing 8.5 mg protein is adjusted to 0.5 mg/ml in 20 mM Tris/HCl, pH 7.5, 2 mM EGTA. An aliquot of 1 mg/ml of N-tosyl-L-phenylalanine-chloromethyl ketone (TPCK) treated trypsin is added to a final trypsin:MLCK ratio of 1:7.5 (mg/mg protein). Typically, the reaction is incubated for 6 minutes at 25° C.
MLCK is assayed using the synthetic peptide substrate KKRPQRATSNVFS-NH2, a thirteen amino acid fragment with a sequence corresponding to residues 11-23 of gizzard light chain except for a carboxy-terminal serine-NH2 as described in Kemp, G. E., Pearson, R. B. and House, C. (1983) Proc. Nat. Acad. Sci. U.S.A. 80, pages 7471-7475. The standard assay is performed in a total volume of 100 microliters (μl) containing 20 mM Tris-HCl, pH 7.2, 10 mM MgCl2, 100 uM [γ-^32 P] ATP with a specific activity of 300-1000 counts per minute (cpm) per picomole (pmol), 50 μM KKRPQRATSNVFS-NH2, 0.02 μg enzyme. Calmodulin was added at the concentrations indicated in the text and tables, and assays contained 1 mM EGTA or 1 mM EGTA plus approximately 200 μM excess free calcium when calcium-dependent activity was measured. Calcium-independent activity is negligible in the calcium dependent gizzard enzyme. Assays are initiated by addition of adenosine triphosphate (ATP) and stopped by addition of 200 μM HCl. Phosphate incorporated into the basic substrate is measured by spotting an aliquot on phosphocellulose filter paper, washing and counting the papers. The results are given in IC50 values. An IC50 indicates the dosage of compound in micromoles (μM) which inhibits MLCK by 50 percent. […] Results given in percentages (%) indicates the percent inhibition at a dosage of 100 μM.

Each structure is given as a SMILES string.

As a reminder, the IC50 is the concentration needed to halve the response being measured. Usually inhibition stands for the share of the control response that was lost under treatment.

T1 sequence (P11799 1217-1713 limits assumed): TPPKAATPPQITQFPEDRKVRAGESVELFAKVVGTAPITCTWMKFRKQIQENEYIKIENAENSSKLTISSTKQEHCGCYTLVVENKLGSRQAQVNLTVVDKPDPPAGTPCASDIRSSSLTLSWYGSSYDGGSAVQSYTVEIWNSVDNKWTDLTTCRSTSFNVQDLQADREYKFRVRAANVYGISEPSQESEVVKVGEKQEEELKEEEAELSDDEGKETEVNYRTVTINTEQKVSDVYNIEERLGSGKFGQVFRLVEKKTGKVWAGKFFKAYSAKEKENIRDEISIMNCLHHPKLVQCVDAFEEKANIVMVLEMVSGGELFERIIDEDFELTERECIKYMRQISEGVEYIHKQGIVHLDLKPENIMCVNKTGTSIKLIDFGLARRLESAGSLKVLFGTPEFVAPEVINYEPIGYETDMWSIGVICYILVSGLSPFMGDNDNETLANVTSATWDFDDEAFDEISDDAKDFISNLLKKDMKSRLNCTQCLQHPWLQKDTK

In the case of `O=S(=O)(c1ccc2c(c1)Cc1cc(Br)ccc1-2)N1CCCNCC1` [Compound A, 1-((7-bromo-9H-fluoren-2-yl)sulfonyl)hexahydro-1H-1,4-diazepine], the “Change in blood pressure (mean change in mean blood pressure)” value is listed as -13 mm Hg in assay [1] (intravenous, 1.0 mpk); -25 mm Hg in assay [1] (intravenous, 2.5 mpk); -30 mm Hg in assay [1] (intravenous, 5.0 mpk). For the same compound, the “reduction in blood pressure upon intravenous administration” value in assay [1] (intravenous, 1.0 to 5.0 mpk, SHR) is “dose-dependent reduction in blood pressure”. Further, the “magnitude of the effect at the highest dose compared with the placebo” value in assay [1] (intravenous, 5.0 mpk, SHR, compared with placebo) was “marked reduction”. Further, the “activity upon oral administration” value in assay [1] (oral, 50 mpk, SHR) was “does not show activity”. In addition, in assay [2], the IC50 turned out to be 76 µM.
With `O=S(=O)(c1cccc2cc3ccccc3cc12)N1CCCNCC1` [Example 16], the IC50 in assay [2] worked out at 17 µM.
On the same count and under the same terms, for `O=S(=O)(c1ccc2cc3ccccc3cc2c1)N1CCCNCC1` [Example 17] the value was 50 µM.
On the same count and under the same terms, for `O=S(=O)(c1cc2ccccc2c2ccccc12)N1CCCNCC1` [Example 18] the value was 4.8 µM; for `O=S(=O)(c1ccc2c(ccc3ccccc32)c1)N1CCCNCC1` [Example 19], 11 µM; for `O=S(=O)(c1ccc2c(Br)cc3ccccc3c2c1)N1CCCNCC1` [Example 20], 10 µM.
For the compound `O=S(=O)(c1cccc2nc3ccccc3cc12)N1CCCNCC1` [Example 21], in assay [2], the IC50 is 100 µM.
Consider `O=S(=O)(c1ccc2ncc3ccccc3c2c1)N1CCCNCC1` [Example 22], for which the IC50 in assay [2] was determined as 32 µM.
Still for that read-out and setting: with `O=S(=O)(c1ccc2c(cnc3ccccc32)c1)N1CCCNCC1` [Example 23] the figure was 65 µM.
`O=S(=O)(c1cccc2c1cnc1ccccc12)N1CCCNCC1` [Example 24]: in assay [2], the IC50 came out at 35 µM.
As for `O=S(=O)(c1c2ccccc2cc2ccccc12)N1CCCNCC1` [Example 25], the IC50 in assay [2] turned out to be 5 µM.
Still for that read-out and setting: for `O=S(=O)(c1cc2ccccc2c2ccccc12)N1CCCNCC1` [Example 26] the value was 3.5 µM.
For the compound `N=C(N)N1CCCN(S(=O)(=O)c2ccc3c(c2)Cc2cc(Br)ccc2-3)CC1` [Example 28], the inhibition at 100 µM in assay [2] turned out to be 55%.
The same measure, in the same setting: for `CC1(C)c2cc(Br)ccc2-c2ccc(S(=O)(=O)N3CCCNCC3)cc21` [Example 29] the value was 40%.
